Assay results reported in patent publication US20220162238A1, “FATTY ACID COMPOSITION AND APPLICATION THEREOF” (SICHUAN GOWELL PHARMACEUTICAL CO., LTD., priority 2019, published 2022).
Marks after values point to notes of the source that are not given here.

Assays:
[1] = test system: DSS-induced IBD mouse model; test: DSS-induced IBD mouse model (Example 10); format: in vivo, C57BL/6J mice; settings: 500 mg/kg intragastrically once a day
Method: 1. Animals: C57BL/6J mice, male (18-20 g); 10 mice per group; purchased from Beijing Huafukang Biotechnology Co., Ltd.; license number: SCXK (Beijing) 2014-0004
(§1) (1) Normal control group (control group): 0.5 wt % sodium carboxymethyl cellulose was administered intragastrically.
(2) IBC model group (model group): 0.5 wt % sodium carboxymethyl cellulose was administered intragastrically.
(3) Positive drug sulfasalazine group (SASP group): Shanghai Sinepharm Factory Co., Ltd. (batch number: 036151102); dosage: 500 mg/kg, prepared with 0.5 wt % sodium carboxymethyl cellulose, stored at 4° C., administered intragastrically once a day.
(4) Test group: the fatty acid compositions of Examples 1 to 9, dosage: 500 mg/kg, prepared with 0.5 wt % sodium carboxymethyl cellulose, stored at 4° C., administered intragastrically once a day.
For the convenience of experimental operation, two experiments were conducted. The fatty acid compositions of Examples 1 to 5 were used for the first experiment; the fatty acid compositions of Examples 6 to 9 were used for the second experiment. Both experiments were operated according to the following methods. C57BL/6J mice were adaptively fed in an SPF animal room (laboratory animal license number: SYXK (Beijing) 2014-0023) for one week, and then randomly grouped. The mice in the model group and the administration groups were constructed as an IBC mouse model with DSS (MP, CA9011-18-1, US) by entrusting to the Institute of Materia Medica, Chinese Academy of Medical Sciences. The mice in the normal control group were not treated. The normal control group (control group) and model group (model group) were administered with 0.5 wt % sodium carboxymethyl cellulose intragastrically, once a day, with an administration volume of 10 mL/kg. The SASP group and the test group were administered intragastrically according to the above experimental scheme, once a day. […] The animals in each group were sacrificed, and each evaluation indicator of colitis was tested (see the section of Experiment results), and the anti-IBD pharmacodynamic activity of each test sample was evaluated comprehensively.
The DAI scoring criteria were as follows:
The histopathology scoring criteria table was as follows: […]

[2] = test system: OXZ-induced mouse IBD model; test: OXZ-induced mouse IBD model (Example 16); format: in vivo, Balb/c mice; settings: 500 mg/kg intragastrically once a day, 6 days
Method: 1. Animals: Balb/c mice, male (20-22 g); 10 mice per group.
as §1
(§2) (2) IBD model group (model group): 0.5 wt % sodium carboxymethyl cellulose was administered intragastrically.
(3) Positive drug sulfasalazine group (SASP group): Dosage: 500 mg/kg, prepared with 0.5 wt % sodium carboxymethyl cellulose; stored at 4° C. and administered intragastrically once a day.
Balb/c mice were adaptively fed in an SPF animal room for one week and then grouped randomly. The mice in the model group and the administration groups were constructed as an IBD mouse model with OXZ by entrusting to the Institute of Materia Medica, Chinese Academy of Medical Sciences. Then, the administration was performed for 6 consecutive days; the normal control group was not treated. The normal control group and the model group were intragastrically administered with 0.5 wt % sodium carboxymethylcellulose, once a day. SASP group and test groups 1 to 2 were administrated intragastrically according to the above experimental scheme, once a day. Animals in each group were sacrificed on day 6 of modeling, and various indicators related to colitis were tested (see the section of Experimental results).

IBD mouse model with DSS = test: DSS-induced IBD mouse model (Example 14); format: in vivo, C57BL/6J mice; settings: 500 mg/kg intragastrically once a day; 6 days of DSS modeling
Method: as §1, §2
(3) Positive drug sulfasalazine group (SASP group): sulfasalazine enteric-coated tablets; dosage: 500 mg/kg, prepared with 0.5 wt % sodium carboxymethyl cellulose; stored at 4° C. and administered intragastrically once a day.
The mice in the model group and the administration groups were constructed as an IBD mouse model with DSS (MP, CA9011-18-1, US, keeping away from light) by entrusting to the Institute of Materia Medica, Chinese Academy of Medical Sciences. The mice in the normal control group were not treated. The normal control group and model group were administered with 0.5 wt % sodium carboxymethyl cellulose intragastrically, once a day. The SASP group and the test group were administered intragastrically according to the above experimental scheme, once a day. […] The animals in each group were sacrificed, and each evaluation indicator of colitis (see the section of Experiment results) was tested, and the anti-IBD pharmacodynamic activity of each test sample was evaluated comprehensively.

[3] = test system: TNBS-induced rat IBD model; test: TNBS-induced rat IBD model (Example 15); format: in vivo, SD rats
Method: (1) Normal control group (control group): 0.5 wt % sodium carboxymethyl cellulose (CMC-Na) was administered intragastrically.
as §2
(3) Positive drug sulfasalazine group (SASP group): sulfasalazine enteric-coated tablets, dosage: 600 mg/kg, prepared with 0.5% sodium carboxymethyl cellulose; administered intragastrically once a day.
3. Experimental method: After being fasted but water allowed for about 24 hours, rats in each group were anesthetized by intraperitoneal injection of 3% sodium pentobarbital solution, and a plastic tube with a diameter of 2 mm and a length of about 12 cm was gently inserted into the rat body via the anus for about 8 cm deep. The ethanol solution containing TNBS was slowly injected with the dose of TNBS 75 mg/kg and the administration volume of 3 mL/kg body weight, and then about 0.1 mL of air was injected to discharge the medicine remained in the plastic tube into intestine. After the administration, the plastic tube was slowly pulled out, the anus was pinched with hand, and the tail of the rat was lifted and kept upside down for about 30 s, so that the modeling agent can fully penetrate into the intestinal cavity of the rat. The normal control group was injected with the same amount of normal saline, Based on the body weight thereof, 75 TNBS modeled rats were randomly divided into model group, positive drug group (sulfasalazine 600 mg/kg body weight), test groups 1 to 3, 15 rats/group, and a normal control group was set up, in which 15 rats were included. On the second day after modeling, the corresponding test samples were administered intragastrically. The normal control group and the model group were administered with 0.5 wt % CMC-Na once a day for 5 consecutive days. DAI activity score was performed on days 1 and 3 of administration and 24 hours after the last administration. Intestinal mucosal damage was observed 24 hours after the last administration for CMDI scoring. The colon tissue was taken for histopathological examination.

[4] = SASP 600 mg/kg, Example 4 at 150, 300 and 600 mg/kg

## O=C(O)c1cc(/N=N/c2ccc(S(=O)(=O)Nc3ccccn3)cc2)ccc1O [Positive drug, sulfasalazine]
[1]; first experiment
  anti-IBD activity / colon tissue damage (in words): effectively improve the colon tissue damage
  disease comprehensive index DAI score vs. model group (in words): reduce the disease comprehensive index DAI score of the experimental animal significantly
[1]; first experiment, 7 days of DSS modeling
  DAI comprehensive index inhibition rate (%): 23.08^# %
[1]; first experiment, 7 days of DSS modeling, lower is closer to normal
  histopathological score: 7.25 ± 2.14
[1]; second experiment
  anti-IBD activity / colon tissue damage (in words): slightly improve the colon tissue damage
[2]
  DAI composite index inhibition rate (%): 50%
  histopathological score: 4.38 ± 0.42
IBD mouse model with DSS
  DAI comprehensive index inhibition rate (%): 38.7^# %
[3]; 600 mg/kg, model group 6 cases of 15
  histopathological examination: cases with histological changes of the colon: 5 cases of 15 cases
[3]; [4]
  degree of colon histological lesions vs. model group: significantly reduced compared with the model group
  symptoms of sparse stools and bloody stools during the administration period: alleviated until disappeared
[3]; d6, 600 mg/kg intragastrically once a day for 5 days, p<0.05
  DAI score value: lower
[3]; d6, 600 mg/kg intragastrically once a day, p<0.05
  CMDI score value: lower
